The source of these data is ChEMBL document CHEMBL1147448, “New substituted triaza-benzo[cd]azulen-9-ones as promising phosphodiesterase-4 inhibitors” (Bioorg Med Chem Lett, 2004).

The structures appear in SMILES notation. Where only a bound is given, the exact number is not on record here.

The target of one test is Phosphodiesterase 3 (Homo sapiens, UniProt Q14432+Q13370). Kind of test: Inhibition of phosphodiesterase 3. It is filed as protein assay, Canis lupus familiaris.
The next test has as its target Phosphodiesterase 4 (Homo sapiens, UniProt P27815+Q08499+Q07343+Q08493). Kind of test: Inhibition of phosphodiesterase 4. The test is classed as protein assay.
The next test concerns the target Phosphodiesterase 1 (Homo sapiens, UniProt P54750+Q01064+Q14123). Put plainly: Inhibition of Phosphodiesterase 1. The test is classed as protein assay, Cavia porcellus.

On to `COc1cc2c3c(n1)C(c1ccccc1)=N[C@@H](NC(=O)c1cccnc1)C(=O)N3CC2`, for which the values for the half-maximal inhibitory concentration (IC50) against Phosphodiesterase 3, against Phosphodiesterase 4 and at Phosphodiesterase 1 were 12 µM, 6.1 µM and 14 µM, respectively.

Take `COc1cc2c3c(c1)C(c1ccccc1)=N[C@@H](NC(=O)c1ccncc1)C(=O)N3CC2`: the IC50 (in general, the concentration at which inhibition is half-maximal) against Phosphodiesterase 1 stood at 16 µM.

Regarding `COc1cc2c3c(n1)C(c1ccccc1)=NC(NC(=O)c1cccnc1)C(=O)N3CC2` (single isomer, unassigned), the IC50 was greater than 100 µM against Phosphodiesterase 3, 73 µM at Phosphodiesterase 4 and 28 µM on Phosphodiesterase 1.

`COc1cc2c3c(c1)C(c1ccccc1)=NCC(=O)N3CC2`: the IC50 is 77 µM against Phosphodiesterase 3, 40 µM on Phosphodiesterase 4 and 52 µM against Phosphodiesterase 1.

Turning to `Nc1cc2c3c(c1)C(c1ccccc1)=N[C@@H](NC(=O)c1ccncc1)C(=O)N3CC2`, at Phosphodiesterase 4, the IC50 was 0.27 µM.

Take `COc1cc2c3c(n1)C(c1ccccc1)=NC(NC(=O)c1cccnc1)C(=O)N3CC2` (stereo in doubt): the IC50 at Phosphodiesterase 3 turned out to be 31 µM; at Phosphodiesterase 4, 4.3 µM; against Phosphodiesterase 1, 5.8 µM.

On to `COc1cc2c3c(n1)C(c1ccccc1)=NCC(=O)N3CC2`, for which the results for the IC50 against Phosphodiesterase 3, at Phosphodiesterase 4 and against Phosphodiesterase 1 were greater than 100 µM, 23 µM and greater than 100 µM, respectively.
